The record followed here is ChEMBL document CHEMBL1147513, “Sensitivity of neuronal nicotinic acetylcholine receptors to the opiate antagonists naltrexone and naloxone: receptor blockade and up-regulation” (Bioorg Med Chem Lett, 2004).

For experiment [1], the system named is HEK293. The experiment is described as follows: Decay-time constant of ACh ([…])-evoked currents in the presence of 1 uM naltrexone in HEK293 cells. It counts as functional, Homo sapiens.
Experiment [2] concerns HEK293. Put plainly: Decay-time constant of ACh ([…])-evoked currents in the presence of 30 uM naltrexone in HEK293 cells. It counts as functional, Homo sapiens.
For experiment [3], the system named is HEK293. The experiment is described as follows: Decay-time constant of ACh ([…])-evoked currents in the presence of 10 uM naltrexone in HEK293 cells. It counts as functional, Homo sapiens.
Experiment [4] relates to HEK293. Put plainly: Decay-time constant of ACh ([…])-evoked currents in the presence of 0.1 uM naltrexone in HEK293 cells. Format: functional, Homo sapiens.
The test system of experiment [5] is HEK293. The experiment is described as follows: Decay-time constant of ACh ([…])-evoked currents in the presence of 3 uM naltrexone in HEK293 cells. Format: functional, Homo sapiens.
The test system of experiment [6] is HEK293. Put plainly: Decay-time constant of ACh ([…])-evoked currents in the presence of 0.3 uM naltrexone in HEK293 cells. Format: functional, Homo sapiens.
Experiment [7] deals with HEK293. The experiment is described as follows: Decay-time constant of ACh ([…])-evoked currents in the presence of 300 uM naltrexone in HEK293 cells. Format: functional, Homo sapiens.
Experiment [8] concerns HEK293. The experiment is described as follows: Decay-time constant of ACh (100 uM) -evoked currents in the absence of naltrexone in HEK293 cells. It counts as functional, Homo sapiens.
Experiment [9] relates to HEK293. The experiment is described as follows: Decay-time constant of ACh ([…])-evoked currents in the presence of 100 uM naltrexone in HEK293 cells. Format: functional, Homo sapiens.
For experiment [10], the target named is T1, Neuronal acetylcholine receptor subunit alpha-4 (Rattus norvegicus, UniProt P09483). The experiment is described as follows: Blockage of Nicotinic acetylcholine receptor alpha4-beta2 noncompetitively in cultured hippocampal neurons. Format: tissue-based, Hippocampus.
Experiment [11] is described as follows: Increase in the charge carried by ACh- induced currents in […] organotypic hippocampal cultures by naltrexone (0.3 uM). Format: functional, Hippocampus.
Experiment [12] has as its target T2, Neuronal acetylcholine receptor subunit alpha-7 (Homo sapiens, UniProt P36544). Put plainly: Blockage of Nicotinic acetylcholine receptor alpha-7 noncompetitively in cultured hippocampal neurons. Format: tissue-based, Hippocampus.
In experiment [13] the target is T1, Neuronal acetylcholine receptor subunit alpha-4. The experiment is described as follows: Blockage of Nicotinic acetylcholine receptor alpha4-beta2 noncompetitively in CA1 stratum radiatum interneurons.
Experiment [14] shares this target. Put plainly: Blockage of Nicotinic acetylcholine receptor alpha4-beta2 noncompetitively in acute hippocampal slices. Format: tissue-based, Hippocampus.
Experiment [15] can be described thus: Increase in the charge carried by choline- induced currents in CA1 pyramidal neurons of […] cultures by naltrexone (0.3 uM). Format: functional, Pyramidal neuron.
The nature of experiment [16]: Increase in the charge carried by choline- induced currents in […] organotypic hippocampal cultures by naltrexone (0.3 uM). It counts as functional, Hippocampus.
Experiment [17] in a line: Increase in the charge carried by ACh- induced currents in CA1 pyramidal neurons of […] cultures by naltrexone (0.3 uM). Format: functional, Pyramidal neuron.
Experiment [18] has as its target T2, Neuronal acetylcholine receptor subunit alpha-7. The experiment is described as follows: Blockage of Nicotinic acetylcholine receptor alpha-7 noncompetitively in hippocampal primary cultures. It counts as tissue-based, Hippocampus.

The structures appear in SMILES notation.

T1 sequence (P09483 whole entry): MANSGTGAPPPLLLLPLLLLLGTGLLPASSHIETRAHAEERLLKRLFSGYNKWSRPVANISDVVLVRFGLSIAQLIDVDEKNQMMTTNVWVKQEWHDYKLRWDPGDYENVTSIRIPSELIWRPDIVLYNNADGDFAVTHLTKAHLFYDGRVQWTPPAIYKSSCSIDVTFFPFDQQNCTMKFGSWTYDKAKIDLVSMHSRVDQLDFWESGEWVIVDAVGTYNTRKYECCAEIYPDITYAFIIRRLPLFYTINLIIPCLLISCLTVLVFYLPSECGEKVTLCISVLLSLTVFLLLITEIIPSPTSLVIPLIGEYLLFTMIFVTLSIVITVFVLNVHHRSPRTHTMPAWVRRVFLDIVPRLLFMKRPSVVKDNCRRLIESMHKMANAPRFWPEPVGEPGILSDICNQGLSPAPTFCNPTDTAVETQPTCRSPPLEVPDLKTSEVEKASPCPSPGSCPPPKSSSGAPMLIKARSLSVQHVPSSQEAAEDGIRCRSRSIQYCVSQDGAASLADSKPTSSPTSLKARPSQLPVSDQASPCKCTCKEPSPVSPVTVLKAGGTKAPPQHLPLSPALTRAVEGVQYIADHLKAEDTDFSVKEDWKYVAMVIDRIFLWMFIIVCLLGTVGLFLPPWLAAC
T2 sequence (P36544 whole entry): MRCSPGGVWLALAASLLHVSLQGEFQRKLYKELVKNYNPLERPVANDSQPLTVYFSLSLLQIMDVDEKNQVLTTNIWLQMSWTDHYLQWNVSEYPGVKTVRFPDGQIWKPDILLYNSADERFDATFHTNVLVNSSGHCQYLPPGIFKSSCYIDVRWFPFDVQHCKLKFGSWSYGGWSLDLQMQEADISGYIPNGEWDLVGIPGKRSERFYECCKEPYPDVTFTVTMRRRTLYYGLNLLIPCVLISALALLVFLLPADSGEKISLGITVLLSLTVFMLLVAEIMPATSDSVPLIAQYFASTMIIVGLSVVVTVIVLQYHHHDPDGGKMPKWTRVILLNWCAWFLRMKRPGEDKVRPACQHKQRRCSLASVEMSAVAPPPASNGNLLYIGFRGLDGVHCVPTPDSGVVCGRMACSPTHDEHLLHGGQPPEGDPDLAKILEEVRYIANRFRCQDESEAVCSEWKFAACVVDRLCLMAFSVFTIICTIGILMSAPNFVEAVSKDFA

As to `CC(=O)OCC[N+](C)(C)C` [ACETYLCHOLINE], the Decay-time constant in [1] is given as 543.11 ms; in experiment [2], 422.02 ms; in experiment [3] it was 467.84 ms; in experiment [4], 509.96 ms; in experiment [5] it was 508.74 ms; in [6], 495.98 ms. In addition, the Decay-time constant in experiment [7] is 202.53 ms; in experiment [8], 547.88 ms; in [9] it was 257.74 ms.

`O=C1CC[C@@]2(O)[C@H]3Cc4ccc(O)c5c4[C@@]2(CCN3CC2CC2)[C@H]1O5` [NALTREXONE]: the IC50 in experiment [10] turned out to be 139 µM; in experiment [12], 30 µM; in [13], 141 µM; in [14] it was 31 µM; in [18], 25 µM. For the same compound, the Increase is 214% in experiment [11], 210% in experiment [15], 283% in experiment [16] and 169% in experiment [17].

Broadly, the IC50 is the point on the concentration scale where inhibition reaches its midpoint. Lower therefore signals higher potency.
